Results reported in ChEMBL document CHEMBL1158638, “MMP-13 selective isonipecotamide alpha-sulfone hydroxamates” (Bioorg Med Chem Lett, 2010).

Legend:
[1] = Selectivity ratio of IC50 for MMP2 to MMP13
[2] = target: 72 kDa type IV collagenase (Homo sapiens, UniProt P08253); assay: Inhibition of MMP2
Collagenase 3 = Collagenase 3 (Homo sapiens, UniProt P45452)
Interstitial collagenase = target: T1, Interstitial collagenase (Homo sapiens, UniProt P03956); assay: Inhibition of MMP1
T1 sequence (P03956 whole entry): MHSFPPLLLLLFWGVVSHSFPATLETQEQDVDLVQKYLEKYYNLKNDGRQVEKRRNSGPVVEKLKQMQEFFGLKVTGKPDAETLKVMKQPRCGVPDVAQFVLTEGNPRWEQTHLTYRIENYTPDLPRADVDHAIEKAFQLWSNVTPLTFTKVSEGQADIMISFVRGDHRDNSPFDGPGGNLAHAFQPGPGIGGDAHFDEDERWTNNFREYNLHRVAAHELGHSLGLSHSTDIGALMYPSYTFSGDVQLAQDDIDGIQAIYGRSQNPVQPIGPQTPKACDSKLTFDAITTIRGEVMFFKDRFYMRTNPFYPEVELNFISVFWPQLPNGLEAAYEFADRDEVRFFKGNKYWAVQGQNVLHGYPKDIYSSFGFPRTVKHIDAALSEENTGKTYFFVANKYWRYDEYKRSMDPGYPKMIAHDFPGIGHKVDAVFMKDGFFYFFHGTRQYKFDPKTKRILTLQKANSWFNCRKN

[3] = target: Matrix metalloproteinase-9 (Homo sapiens, UniProt P14780); assay: Inhibition of MMP9
Neutrophil collagenase = Neutrophil collagenase (Homo sapiens, UniProt P22894); assay: Inhibition of MMP8
Stromelysin-1 = Stromelysin-1 (Homo sapiens, UniProt P08254); assay: Inhibition of MMP3
[4] = target: Matrix metalloproteinase-14 (Homo sapiens, UniProt P50281); assay: Inhibition of MMP14
[5] = Half life in po dosed rat; assay type: ADME, organism-based; conditions: in vivo
[6] = Bioavailability in po dosed rat; assay type: ADME, organism-based; conditions: in vivo

Sequence of Matrix metalloproteinase-9 (P14780 whole entry): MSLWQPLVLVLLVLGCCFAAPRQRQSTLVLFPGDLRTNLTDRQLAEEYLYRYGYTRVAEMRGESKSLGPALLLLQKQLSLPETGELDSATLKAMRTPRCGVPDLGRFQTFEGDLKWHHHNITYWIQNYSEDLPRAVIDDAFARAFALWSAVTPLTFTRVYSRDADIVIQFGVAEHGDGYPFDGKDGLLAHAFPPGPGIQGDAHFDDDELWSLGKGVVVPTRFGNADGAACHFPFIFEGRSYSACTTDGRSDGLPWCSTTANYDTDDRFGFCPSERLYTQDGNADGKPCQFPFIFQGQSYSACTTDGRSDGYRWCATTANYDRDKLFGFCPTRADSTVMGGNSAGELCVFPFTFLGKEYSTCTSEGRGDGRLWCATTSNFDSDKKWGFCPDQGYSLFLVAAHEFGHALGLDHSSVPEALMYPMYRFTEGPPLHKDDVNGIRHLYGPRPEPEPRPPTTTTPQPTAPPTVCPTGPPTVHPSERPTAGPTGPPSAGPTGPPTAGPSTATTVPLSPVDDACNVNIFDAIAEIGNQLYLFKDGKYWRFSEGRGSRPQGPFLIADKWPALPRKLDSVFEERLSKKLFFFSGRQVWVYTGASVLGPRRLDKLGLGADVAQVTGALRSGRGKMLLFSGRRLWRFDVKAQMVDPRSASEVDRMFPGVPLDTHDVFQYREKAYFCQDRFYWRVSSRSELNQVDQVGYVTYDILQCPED
Sequence of Neutrophil collagenase (P22894 whole entry): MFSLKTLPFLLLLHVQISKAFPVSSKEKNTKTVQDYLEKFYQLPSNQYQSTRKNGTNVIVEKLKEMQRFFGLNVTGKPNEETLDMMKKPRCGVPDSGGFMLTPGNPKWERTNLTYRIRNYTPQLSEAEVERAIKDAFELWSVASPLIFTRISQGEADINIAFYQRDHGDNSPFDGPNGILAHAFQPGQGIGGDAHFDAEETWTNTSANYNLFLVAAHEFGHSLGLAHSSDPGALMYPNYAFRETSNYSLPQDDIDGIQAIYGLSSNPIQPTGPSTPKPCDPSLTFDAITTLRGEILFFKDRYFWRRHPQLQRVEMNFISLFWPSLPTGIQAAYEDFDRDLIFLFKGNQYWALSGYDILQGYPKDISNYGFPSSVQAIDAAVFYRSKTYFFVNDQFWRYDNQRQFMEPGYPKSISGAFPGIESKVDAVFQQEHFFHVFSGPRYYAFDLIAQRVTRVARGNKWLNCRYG
Sequence of 72 kDa type IV collagenase (P08253 whole entry): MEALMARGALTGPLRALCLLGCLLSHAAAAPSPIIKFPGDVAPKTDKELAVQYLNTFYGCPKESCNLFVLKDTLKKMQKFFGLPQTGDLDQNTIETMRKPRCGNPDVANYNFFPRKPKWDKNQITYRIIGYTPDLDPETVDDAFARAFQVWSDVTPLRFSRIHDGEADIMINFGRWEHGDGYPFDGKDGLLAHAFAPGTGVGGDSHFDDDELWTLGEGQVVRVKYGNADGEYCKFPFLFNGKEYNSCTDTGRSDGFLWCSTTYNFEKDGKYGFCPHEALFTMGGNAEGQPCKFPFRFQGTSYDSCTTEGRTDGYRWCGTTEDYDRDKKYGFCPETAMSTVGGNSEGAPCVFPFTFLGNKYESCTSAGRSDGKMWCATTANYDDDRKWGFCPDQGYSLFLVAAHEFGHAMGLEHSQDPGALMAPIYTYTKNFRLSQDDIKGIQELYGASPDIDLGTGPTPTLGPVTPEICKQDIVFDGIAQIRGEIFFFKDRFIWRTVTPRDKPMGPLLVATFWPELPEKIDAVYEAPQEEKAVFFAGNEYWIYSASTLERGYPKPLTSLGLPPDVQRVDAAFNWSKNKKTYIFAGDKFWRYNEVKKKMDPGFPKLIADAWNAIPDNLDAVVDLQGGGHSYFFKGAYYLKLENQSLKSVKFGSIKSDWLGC
Sequence of Stromelysin-1 (P08254 whole entry): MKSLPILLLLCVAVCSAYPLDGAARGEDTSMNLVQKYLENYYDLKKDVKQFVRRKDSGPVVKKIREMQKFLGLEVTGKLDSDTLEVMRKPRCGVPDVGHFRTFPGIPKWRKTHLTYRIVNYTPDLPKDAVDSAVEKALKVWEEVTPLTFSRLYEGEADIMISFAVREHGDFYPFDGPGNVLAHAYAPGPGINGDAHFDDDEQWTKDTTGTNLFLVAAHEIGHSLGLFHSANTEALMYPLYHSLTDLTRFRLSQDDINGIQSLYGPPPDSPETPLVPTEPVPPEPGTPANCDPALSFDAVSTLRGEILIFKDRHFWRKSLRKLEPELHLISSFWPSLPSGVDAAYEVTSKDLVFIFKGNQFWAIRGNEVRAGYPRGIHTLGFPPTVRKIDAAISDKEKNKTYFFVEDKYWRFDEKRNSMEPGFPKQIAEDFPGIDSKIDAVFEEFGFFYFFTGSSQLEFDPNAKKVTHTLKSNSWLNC

| SMILES | Ratio IC50 [1] | IC50 [2] [µM] | IC50 (Collagenase 3) [µM] | other results |
| --- | --- | --- | --- | --- |
| COc1cc2c(cc1OC)CN(C(=O)C1CCN(c3ccc(S(=O)(=O)C4(C(=O)NO)CCOCC4)cc3)CC1)CC2 | – | 2.4 | – | – |
| Cc1ccc(N2CCN(C(=O)C3CCN(c4ccc(S(=O)(=O)C5(C(=O)NO)CCOCC5)cc4)CC3)CC2)c(C)c1 | 459 | – | – | – |
| COCCN1CCC(C(=O)NO)(S(=O)(=O)c2ccc(N3CCC(C(=O)N4CC(C)NC(C)C4)CC3)cc2)CC1 (centres undefined) | 34 | 1.7 | 0.05 | – |
| O=C(C1CCN(c2ccc(S(=O)(=O)C3(C(=O)NO)CCOCC3)cc2)CC1)N1CCN(c2ccc(F)cc2)CC1 | 267 | – | – | – |
| C#CCN(C)C(=O)C1CCN(c2ccc(S(=O)(=O)C3(C(=O)NO)CCOCC3)cc2)CC1 | 86 | 2.1 | 0.0245 | – |
| O=C(C1CCN(c2ccc(S(=O)(=O)C3(C(=O)NO)CCOCC3)cc2)CC1)N1CCN(c2ccccc2F)CC1 | 209 | – | – | – |
| COc1ccccc1N1CCN(C(=O)C2CCN(c3ccc(S(=O)(=O)C4(C(=O)NO)CCOCC4)cc3)CC2)CC1 | 250 | – | – | – |
| Cc1cccc(N2CCN(C(=O)C3CCN(c4ccc(S(=O)(=O)C5(C(=O)NO)CCN(C6CC6)CC5)cc4)CC3)CC2)c1C | – | 6.35 | 0.0277 | IC50 (Interstitial collagenase): > 10 µM; IC50 [3]: > 10 µM; IC50 (Neutrophil collagenase): 9.4 µM; IC50 (Stromelysin-1): 0.55 µM; IC50 [4]: > 10 µM |
| C=CCN(C)C(=O)C1CCN(c2ccc(S(=O)(=O)C3(C(=O)NO)CCOCC3)cc2)CC1 | 83 | 2.9 | 0.035 | – |
| C[C@@H]1COC[C@H](C)N1C(=O)C1CCN(c2ccc(S(=O)(=O)C3(C(=O)NO)CCOCC3)cc2)CC1 | – | > 10 | 0.0181 | – |
| O=C(C1CCN(c2ccc(S(=O)(=O)C3(C(=O)NO)CCOCC3)cc2)CC1)N1CCc2ccccc2C1 | 233 | 2.1 | 0.009 | – |
| Cc1cccc(N2CCN(C(=O)C3CCN(c4ccc(S(=O)(=O)C5(C(=O)NO)CCOCC5)cc4)CC3)CC2)c1C | 1500 | 6 | 0.004 | IC50 (Interstitial collagenase): > 10 µM; IC50 [3]: > 10 µM; IC50 (Neutrophil collagenase): > 10 µM; IC50 (Stromelysin-1): 0.16 µM; IC50 [4]: > 10 µM |
| COCCN1CCC(C(=O)NO)(S(=O)(=O)c2ccc(N3CCC(C(=O)Nc4ccccc4)CC3)cc2)CC1 | – | – | – | IC50 (Interstitial collagenase): 10 µM; IC50 [3]: 1.23 µM; half-life [5]: 49.8 min; IC50 (Neutrophil collagenase): 10 µM; IC50 (Stromelysin-1): 0.37 µM; IC50 [4]: 10 µM; bioavailability [6]: 4.2% |
| COCCN1CCC(C(=O)NO)(S(=O)(=O)c2ccc(N3CCC(C(=O)N4CCN(c5cccc(C)c5C)CC4)CC3)cc2)CC1 | – | 0.4 | 0.07 | IC50 (Interstitial collagenase): > 10 µM |
| CC1CN(C(=O)C2CCN(c3ccc(S(=O)(=O)C4(C(=O)NO)CCOCC4)cc3)CC2)CC(C)N1 (centres undefined) | – | 7.3 | – | – |
| O=C(C1CCN(c2ccc(S(=O)(=O)C3(C(=O)NO)CCOCC3)cc2)CC1)N1CCN(CCc2ccccc2)CC1 | 36 | 0.9 | 0.0251 | – |
| CN(Cc1ccccc1)C(=O)C1CCN(c2ccc(S(=O)(=O)C3(C(=O)NO)CCN(C4CC4)CC3)cc2)CC1 | 175 | 3.5 | 0.02 | – |

Second part, led by results:

| Ratio IC50 [1] | IC50 [2] [µM] | IC50 (Collagenase 3) [µM] | SMILES | other results |
| --- | --- | --- | --- | --- |
| 58 | – | – | O=C(C1CCN(c2ccc(S(=O)(=O)C3(C(=O)NO)CCOCC3)cc2)CC1)N1CCN(c2ccncc2)CC1 | – |
| 50 | – | – | CC(=O)N1CCN(C(=O)C2CCN(c3ccc(S(=O)(=O)C4(C(=O)NO)CCOCC4)cc3)CC2)CC1 | – |
| 336 | – | – | O=C(C1CCN(c2ccc(S(=O)(=O)C3(C(=O)NO)CCOCC3)cc2)CC1)N1CCN(c2ccccn2)CC1 | – |
| 196 | – | – | CC(C)N1CCN(C(=O)C2CCN(c3ccc(S(=O)(=O)C4(C(=O)NO)CCOCC4)cc3)CC2)CC1 | – |
| 104 | – | – | CC(=O)c1ccc(N2CCN(C(=O)C3CCN(c4ccc(S(=O)(=O)C5(C(=O)NO)CCOCC5)cc4)CC3)CC2)cc1 | – |
| > 111 | > 10 | – | CN(C)CCN1CCN(C(=O)C2CCN(c3ccc(S(=O)(=O)C4(C(=O)NO)CCOCC4)cc3)CC2)CC1 | – |
| 150 | – | – | O=C(C1CCN(c2ccc(S(=O)(=O)C3(C(=O)NO)CCOCC3)cc2)CC1)N1CCN(CCO)CC1 | – |
| 156 | 7 | 0.045 | COCCN1CCN(C(=O)C2CCN(c3ccc(S(=O)(=O)C4(C(=O)NO)CCOCC4)cc3)CC2)CC1 | – |
| 250 | – | – | O=C(C1CCN(c2ccc(S(=O)(=O)C3(C(=O)NO)CCOCC3)cc2)CC1)N1CCN(c2ncccn2)CC1 | – |
| 34 | – | – | O=C(C1CCN(c2ccc(S(=O)(=O)C3(C(=O)NO)CCOCC3)cc2)CC1)N1CCN(c2cnccn2)CC1 | – |
